# Experimental data taken from paper PMC7288171, “Synergistic Effects of Thiosemicarbazides with Clinical Drugs against S. aureus” (Molecules, 2020).
# Like-named read-outs stand apart in the source and are kept apart here.
# Assays:
# M. luteus ATCC 10240 = assay: MIC, broth microdilution; assay type: cell-based; conditions: Micrococcus luteus, ATCC10240
# Experimental: (§1) The antibacterial activity of the thiosemicarbazides 1–9 and antibiotics (amoxicillin, gentamicin, levofloxacin, linezolid, and vancomycin) was tested on the Gram-positive strains (Microbiologics, St. Cloud, MN, USA) (S. aureus ATCC 25923, S. aureus ATCC 6538, S. epidermidis ATCC 12228, B. subtilis ATCC 6633, B. cereus ATCC 10876, M. luteus ATCC 10240), the Gram-negative strains (Microbiologics, St. Cloud, MN, USA) (E. coli ATCC 25922, K. pneumoniae ATCC 13883, P. mirabilis ATCC 12453, P. aeruginosa ATCC 9027), and clinical isolates of S. aureus (Medical University of Lublin, Lublin, Poland) (MSSA-1, MSSA-2, MSSA-3, MSSA-4, MRSA-1).
# B. cereus ATCC 10876 = assay: MIC, broth microdilution; assay type: cell-based; conditions: Bacillus cereus, ATCC10876
# Experimental: as §1
# S. aureus ATCC 6538 = assay: MIC, broth microdilution; assay type: cell-based; conditions: Staphylococcus aureus, ATCC6538
# Experimental: as §1
# B. subtilis ATCC 6633 = assay: MIC, broth microdilution; assay type: cell-based; conditions: Bacillus subtilis, ATCC6633
# Experimental: as §1
# [1] = tested on: S. epidermidis ATCC 12228; assay: MIC, broth microdilution; assay type: cell-based; conditions: Staphylococcus epidermidis, ATCC12228
# Experimental: as §1
# S. aureus ATCC 25923 [2] = assay: MIC, broth microdilution; assay type: cell-based; conditions: Staphylococcus aureus, ATCC25923
# Experimental: as §1
# MSSA-4 = assay: MIC, clinical isolate of S. aureus; assay type: cell-based; conditions: Staphylococcus aureus
# Experimental: as §1
# MSSA-3 = assay: MIC, clinical isolate of S. aureus; assay type: cell-based; conditions: Staphylococcus aureus
# Experimental: as §1
# MRSA-1 = assay: MIC, clinical isolate of S. aureus; assay type: cell-based; conditions: Staphylococcus aureus
# Experimental: as §1
# MSSA-1 = assay: MIC, clinical isolate of S. aureus; assay type: cell-based; conditions: Staphylococcus aureus
# Experimental: as §1
# MSSA-2 = assay: MIC, clinical isolate of S. aureus; assay type: cell-based; conditions: Staphylococcus aureus
# Experimental: as §1
# S. aureus DNA gyrase = target: T1, S. aureus DNA gyrase (Staphylococcus aureus, UniProt P0A0K8+P20831); assay: Gyrase supercoiling assay; assay type: biochemical
# T1 construct: purchased Inspiralis, Norwich, UK
# Experimental: Supercoiling assay: The assays were performed using S. aureus Gyrase Supercoiling Assay Kits (Inspiralis, Norwich, UK). Briefly, […] pBR322 plasmid DNA (0.5 µg) was incubated with 1 unit of gyrase, in the dedicated supercoiling assay buffer supplied by the manufacturer, in the presence of varying concentrations of the test compounds. Reactions were carried out at 37 °C for 1 h and then terminated by the addition of equal volume of 2 × STOP Buffer (40% sucrose, 100 mM Tris-Cl pH 7.5, 1 mM EDTA, and 0.5 mg/mL bromophenol blue) and chloroform/iso-amyl alcohol. Samples were vortexed, centrifuged, and run through a 15 cm 1% agarose gel in TAE buffer (40 mM Tris-acetate, 2 mM EDTA) for 3 h at 50 V. Gels were stained with ethidium bromide and visualized under UV light.
# MTT cytotoxicity assay = assay type: cell-based, human; conditions: human, Hs27 foreskin fibroblast cells (ATCC CRL-1634), 25 µg/mL, 24 h, vehicle control = 100%
# Experimental: (§2) A critical factor in research and development of new antibacterial agents is their abilities to selectively target bacterial cells without toxicity to mammalian cells. Thus, in order to test if antibacterial activity of title thiosemicarbazides is not due to their general toxicity, their effect on mammalian cell viability was assessed using human foreskin fibroblast Hs27 cells (CRL-1634) via MTT assay.
# (§3) Cytotoxic properties of the compounds were evaluated using human foreskin fibroblast cells Hs27 (ATCC CRL-1634) (ATCC, Manassas, VA, USA) that were cultured in DMEM-high glucose (Sigma Aldrich, St. Louis, MO, USA). Medium was supplemented with 10% fetal bovine serum (FBS, Sigma Aldrich), 100 U/mL of penicillin, and […] of streptomycin (PenStrep, Sigma Aldrich, St. Louis, MO, USA). Cells were incubated at 37 °C in a humidified atmosphere of 5% CO2. Stock solutions of the tested compounds were prepared dissolving in a sterile dimethyl sulfoxide (DMSO) to the concentration of 50 mg/mL. The cells were seeded into 96-well sterile plates (Nunc) at a cell density of 1 × 10^5 cells/mL. After 24 h of incubation, the medium was removed from each well, and then cells were incubated for the next 24 h with tested compounds (in a fixed dose of 25 µg/mL) in DMEM-high glucose containing 2% FBS. Control cells were cultured only with medium containing 2% addition of FBS. Cytotoxicity of the compounds was evaluated using MTT assay, which is based on the conversion of 3-(4,5-dimethylthiazol-2-yl)-2,5- diphenyltetrazolium bromide (MTT) into dark-blue formazan crystals. Briefly, after 24-h incubation of cells with varying concentrations of the tested compounds, culture medium was removed from the plates. Cells were washed with PBS, and then 100 µL of medium containing 10% MTT solution (5 mg/mL) was added to each well. Cells were incubated for the next 3 h at 37 °C in an atmosphere of 5% CO2. Next, 100 µL (per well) of 10% sodium dodecyl sulfate (SDS) buffer solution was added to dissolve formazan crystals and after an overnight incubation the absorbance was measured at 570 nm using a microplate reader (Epoch, BioTek Instruments, Inc., Winooski, VT, USA).
# [3] = tested on: human foreskin fibroblast Hs27 cells (CRL-1634); assay: MTT cytotoxicity assay; assay type: cell-based; conditions: Homo sapiens, 24 h of treatment
# Experimental: as §2, §3
# S. aureus ATCC 25923 [4] = assay: Checkerboard broth dilution synergy assay; assay type: cell-based
# Experimental: The microdilution checkerboard method was used to evaluate the synergistic effects between the thiosemicarbazides 1–9 and antibiotics, which were determined as the fractional inhibitory concentration indices (FICIs). For these experiments, amoxicillin, gentamicin, levofloxacin, linezolid, and vancomycin were selected to represent the five antimicrobial classes most commonly used in clinical practice. In this way, a total of 45 combinations of thiosemicarbazide-amoxicillin, thiosemicarbazide-gentamicin, thiosemicarbazide-levofloxacin, thiosemicarbazide-linezolid, and thiosemicarbazide-vancomycin against S. aureus ATCC 25923 were tested to identify in vitro synergy effects.
# Interaction of the thiosemicarbazides 1–9 in combination with amoxicillin, gentamicin, levofloxacin, linezolid or vancomycin against S. aureus ATCC 25923 were analyzed using the checkerboard broth dilution method to determine the fractional inhibitory concentration indices (FICIs), calculated as: FIC = MIC of drug A in combination/MIC of drug A alone + MIC of drug B in combination/MIC of drug B alone. The calculated FICIs were interpreted as synergistic (FIC ≤ 0.5), additive (0.5 < FIC < 1), indifferent (1 ≤ FIC < 4.0), or antagonistic (FIC ≥ 4.0). The checkerboard assay included ciprofloxacin-carvedilol combination as positive control, whereas cefuroxime in combination with 4-(4-bromophenyl)-1-(3-fluorobezoyl)thiosemicarbazide served as negative control. The Z-factor value for the bioassay was 0.683.
# [5] = M. l. ATCC 10240, compounds 6–9 and antibiotics, read-out: MIC
# [6] = B. c. ATCC 10876, compounds 6–9 and antibiotics, read-out: MIC
# [7] = S. a. ATCC 6538, compounds 6–9 and antibiotics, read-out: MIC
# [8] = B. s. ATCC 6633, compounds 6–9 and antibiotics, read-out: MIC
# [9] = S. e. ATCC 12228, compounds 6–9 and antibiotics, read-out: MIC
# [10] = S. a. ATCC 25923, compounds 6–9 and antibiotics, read-out: MIC
# [11] = clinical isolate MSSA-4, read-out: MIC
# [12] = clinical isolate MSSA-3, read-out: MIC
# [13] = clinical isolate MRSA-1, read-out: MIC
# [14] = clinical isolate MSSA-1, read-out: MIC
# [15] = clinical isolate MSSA-2, read-out: MIC
Structure (SMILES),MIC (M. luteus ATCC 10240; [5]) [µg/mL],MIC (B. cereus ATCC 10876; [6]) [µg/mL],MIC (S. aureus ATCC 6538; [7]) [µg/mL],MIC (B. subtilis ATCC 6633; [8]) [µg/mL],"MIC [1, 9] [µg/mL]",MIC (S. aureus ATCC 25923 [2]; [10]) [µg/mL],MIC (MSSA-4; [11]) [µg/mL],MIC (MSSA-3; [12]) [µg/mL],MIC (MRSA-1; [13]) [µg/mL],MIC (MSSA-1; [14]) [µg/mL],MIC (MSSA-2; [15]) [µg/mL],"viability at 24 h, 25 µg/mL (MTT cytotoxicity assay) [%]",IC50 [3] [µg/mL],also measured
"C[C@H]1COc2c(N3CCN(C)CC3)c(F)cc3c(=O)c(C(=O)O)cn1c23 [LEV, levofloxacin, reference compound]",0.98,0.12,0.24,0.12,0.12,0.24,0.12,0.12,31.2,0.12,0.24,101,> 25,"inhibition at 100 µM (S. aureus DNA gyrase; 100 µM, read-out: S. aureus Gyrase DNA Inhibition (%) ± SD): 92.4 ± 3.74%"
"CN[C@H](CC(C)C)C(=O)N[C@H]1C(=O)N[C@@H](CC(N)=O)C(=O)N[C@H]2C(=O)N[C@H]3C(=O)N[C@H](C(=O)N[C@H](C(=O)O)c4cc(O)cc(O)c4-c4cc3ccc4O)[C@H](O)c3ccc(c(Cl)c3)Oc3cc2cc(c3O[C@@H]2O[C@H](CO)[C@@H](O)[C@H](O)[C@H]2O[C@H]2C[C@](C)(N)[C@H](O)[C@H](C)O2)Oc2ccc(cc2Cl)[C@H]1O [VA, vancomycin, reference compound]",,,,,,,,,,,,,,MIC (M. luteus ATCC 10240): 0.24 µg/mL; MIC (B. cereus ATCC 10876): 0.98 µg/mL; MIC (S. aureus ATCC 6538): 0.49 µg/mL; MIC (B. subtilis ATCC 6633): 0.24 µg/mL; MIC [1]: 0.98 µg/mL; MIC (S. aureus ATCC 25923 [2]): 0.98 µg/mL; MIC (MSSA-4; MSSA): 0.49 µg/mL; MIC (MSSA-3; MSSA): 0.49 µg/mL; MIC (MRSA-1; MRSA): 0.98 µg/mL; MIC (MSSA-1; MSSA): 0.49 µg/mL; MIC (MSSA-2; MSSA): 0.49 µg/mL
"O=C(NNC(=S)Nc1ccc(Cl)cc1)c1ccccc1F [compound 6, 4-(4-chlorophenyl)-1-(2-fluorobenzoyl)thiosemicarbazide]",7.82,31.2,250,500,250,500,125,250,500,250,> 500,96.8,> 25,"inhibition at 50 µM (S. aureus DNA gyrase; 50 µM, read-out: S. aureus Gyrase DNA Inhibition (%) ± SD): 30.8 ± 3.19%; S. aureus Gyrase DNA Inhibition (%) ± SD (S. aureus DNA gyrase; 100 µM): 49.22 ± 3.18%; inhibition at 100 µM (S. aureus DNA gyrase; read-out: S. aureus Gyrase DNA Inhibition (%) ± SD, 100 µM): ~50%; interaction in combination (S. aureus ATCC 25923 [4]; combination with amoxicillin): additive; interaction in combination (S. aureus ATCC 25923 [4]; combination with gentamicin): synergistic; interaction in combination (S. aureus ATCC 25923 [4]; combination with levofloxacin): additive; interaction in combination (S. aureus ATCC 25923 [4]; combination with linezolid): synergistic; interaction in combination (S. aureus ATCC 25923 [4]; combination with vancomycin): additive"

# Now from value to compound, other results behind:
MIC (M. luteus ATCC 10240; [5]) [µg/mL],MIC (B. cereus ATCC 10876; [6]) [µg/mL],MIC (S. aureus ATCC 6538; [7]) [µg/mL],MIC (B. subtilis ATCC 6633; [8]) [µg/mL],"MIC [1, 9] [µg/mL]",MIC (S. aureus ATCC 25923 [2]; [10]) [µg/mL],MIC (MSSA-4; [11]) [µg/mL],MIC (MSSA-3; [12]) [µg/mL],MIC (MRSA-1; [13]) [µg/mL],MIC (MSSA-1; [14]) [µg/mL],MIC (MSSA-2; [15]) [µg/mL],Structure (SMILES),"viability at 24 h, 25 µg/mL (MTT cytotoxicity assay) [%]",IC50 [3] [µg/mL],also measured
0.24,> 250,0.12,0.12,7.81,0.12,31.2,0.98,31.2,1.95,0.12,"CC1(C)S[C@@H]2[C@H](NC(=O)[C@H](N)c3ccc(O)cc3)C(=O)N2[C@H]1C(=O)O [AMX, amoxicillin, reference compound]",,,
0.98,15.6,0.98,0.24,0.12,1.95,1.95,7.81,0.98,0.98,0.49,"CNC(C)C1CCC(N)C(OC2C(N)CC(N)C(OC3OCC(C)(O)C(NC)C3O)C2O)O1 (stereo not shown) [GN, gentamicin, reference compound]",,,
0.98,0.98,0.98,0.98,0.49,1.95,1.95,0.98,1.95,1.95,1.95,"CC(=O)NC[C@H]1CN(c2ccc(N3CCOCC3)c(F)c2)C(=O)O1 [LZD, linezolid, reference compound]",,,
